Measured values from the NIST ThermoML archive (doi:10.1016/j.jct.2009.06.001).
Numbers after ± are expanded uncertainties.

Columns and labels:
[1] = mn = molality of the nth substance listed, in mol/kg; conditions: 298.15 K, 101 kPa, Liquid; for speed of sound: Sing-around technique in a fixed-path interferometer; for mass density: Vibrating tube method
[2] = 298.15 K, 101.33 kPa, Liquid; for speed of sound: Sing-around technique in a fixed-path interferometer; for mass density: Vibrating tube method

Work on `c1ccccc1` [benzene] + CCCCCCC yielded a speed of sound ([1]; m1 = 0.1915) of 1132.3 ± 1.8 m/s, a speed of sound ([1]; m1 = 0.3783) of 1133.2 ± 1.8 m/s and a speed of sound ([1]; m1 = 0.5615) of 1133.9 ± 1.8 m/s. The speed of sound ([1]; m1 = 0.7515) was 1134.8 ± 1.8 m/s, the speed of sound ([1]; m1 = 0.943) was 1135.8 ± 1.8 m/s and the mass density ([1]; m1 = 0.1915) was 681.6 ± 1.6 kg/m3. The mass density ([1]; m1 = 0.3783) was 683.56 ± 1.6 kg/m3, the mass density ([1]; m1 = 0.5615) was 685.43 ± 1.6 kg/m3 and the mass density ([1]; m1 = 0.7515) was 687.34 ± 1.6 kg/m3. For the same compound, the mass density ([1]; m1 = 0.943) was 689.24 ± 1.6 kg/m3.
`c1ccc(-c2ccccc2)cc1` [biphenyl] + C1CCCCC1 gave a speed of sound ([1]; m1 = 0.0342) of 1256 ± 1.8 m/s, a speed of sound ([1]; m1 = 0.0676) of 1256.7 ± 1.8 m/s and a speed of sound ([1]; m1 = 0.1061) of 1257.5 ± 1.8 m/s. It also gave a speed of sound ([1]; m1 = 0.1335) of 1258.1 ± 1.8 m/s, a speed of sound ([1]; m1 = 0.1732) of 1259 ± 1.8 m/s and a mass density ([1]; m1 = 0.0342) of 774.82 ± 1.6 kg/m3. It also gave a mass density ([1]; m1 = 0.0676) of 775.74 ± 1.6 kg/m3, a mass density ([1]; m1 = 0.1061) of 776.79 ± 1.6 kg/m3 and a mass density ([1]; m1 = 0.1335) of 777.52 ± 1.6 kg/m3. It also gave a mass density ([1]; m1 = 0.1732) of 778.61 ± 1.6 kg/m3.
In the case of `c1ccc(-c2ccccc2)cc1` [biphenyl] + CCCCCCC, the speed of sound ([1]; m1 = 0.0409) is reported as 1133 ± 1.8 m/s, the speed of sound ([1]; m1 = 0.0772) is reported as 1134.4 ± 1.8 m/s and the speed of sound ([1]; m1 = 0.113) is reported as 1135.6 ± 1.8 m/s. For the same compound, the speed of sound ([1]; m1 = 0.1561) was 1137 ± 1.8 m/s, the speed of sound ([1]; m1 = 0.1949) was 1138.3 ± 1.8 m/s and the mass density ([1]; m1 = 0.0409) was 681.02 ± 1.6 kg/m3. For the same compound, the mass density ([1]; m1 = 0.0772) was 682.37 ± 1.6 kg/m3, the mass density ([1]; m1 = 0.113) was 683.67 ± 1.6 kg/m3 and the mass density ([1]; m1 = 0.1561) was 685.21 ± 1.6 kg/m3. It also gave a mass density ([1]; m1 = 0.1949) of 686.6 ± 1.6 kg/m3.
Work on `C1CCCCC1` [cyclohexane] yielded a speed of sound [2] of 1255.3 ± 1.8 m/s and a mass density [2] of 773.87 ± 1.6 kg/m3.
With `C1CCCCC1` [cyclohexane] + c1ccccc1 the speed of sound ([1]; m2 = 0.162) was 1254.7 ± 1.8 m/s, the speed of sound ([1]; m2 = 0.3316) was 1254.2 ± 1.8 m/s and the speed of sound ([1]; m2 = 0.5187) was 1253.5 ± 1.8 m/s. The speed of sound ([1]; m2 = 0.6616) was 1253.2 ± 1.8 m/s, the speed of sound ([1]; m2 = 0.8272) was 1252.7 ± 1.8 m/s and the mass density ([1]; m2 = 0.162) was 774.73 ± 1.6 kg/m3. It also gave a mass density ([1]; m2 = 0.3316) of 775.59 ± 1.6 kg/m3, a mass density ([1]; m2 = 0.5187) of 776.54 ± 1.6 kg/m3 and a mass density ([1]; m2 = 0.6616) of 777.26 ± 1.6 kg/m3. The mass density ([1]; m2 = 0.8272) was 778.07 ± 1.6 kg/m3.
For `CCCCCCC` [heptane], the speed of sound [2] was 1131.4 ± 1.8 m/s and the mass density [2] was 679.55 ± 1.6 kg/m3.
Compound `c1ccc(-c2cccc(-c3ccccc3)c2)cc1` [m-terphenyl] + C1CCCCC1 has a speed of sound ([1]; m1 = 0.0253) of 1256.5 ± 1.8 m/s, a speed of sound ([1]; m1 = 0.0482) of 1257.4 ± 1.8 m/s and a speed of sound ([1]; m1 = 0.0693) of 1258.2 ± 1.8 m/s. The speed of sound ([1]; m1 = 0.0928) was 1259.2 ± 1.8 m/s, the speed of sound ([1]; m1 = 0.1161) was 1260.1 ± 1.8 m/s and the mass density ([1]; m1 = 0.0253) was 775.15 ± 1.6 kg/m3. The mass density ([1]; m1 = 0.0482) was 776.28 ± 1.6 kg/m3, the mass density ([1]; m1 = 0.0693) was 777.33 ± 1.6 kg/m3 and the mass density ([1]; m1 = 0.0928) was 778.48 ± 1.6 kg/m3. The mass density ([1]; m1 = 0.1161) was 779.62 ± 1.6 kg/m3.
In the case of `c1ccc(-c2cccc(-c3ccccc3)c2)cc1` [m-terphenyl] + CCCCCCC, the speed of sound ([1]; m1 = 0.0245) is reported as 1133 ± 1.8 m/s, the speed of sound ([1]; m1 = 0.04) is reported as 1133.8 ± 1.8 m/s and the speed of sound ([1]; m1 = 0.0536) is reported as 1134.6 ± 1.8 m/s. The speed of sound ([1]; m1 = 0.0666) was 1135.3 ± 1.8 m/s, the speed of sound ([1]; m1 = 0.076) was 1135.9 ± 1.8 m/s and the mass density ([1]; m1 = 0.0245) was 681.04 ± 1.6 kg/m3. For the same compound, the mass density ([1]; m1 = 0.04) was 682 ± 1.6 kg/m3, the mass density ([1]; m1 = 0.0536) was 682.83 ± 1.6 kg/m3 and the mass density ([1]; m1 = 0.0666) was 683.63 ± 1.6 kg/m3. It also gave a mass density ([1]; m1 = 0.076) of 684.21 ± 1.6 kg/m3.
With `c1ccc2ccccc2c1` [naphthalene] + C1CCCCC1 the speed of sound ([1]; m1 = 0.0805) was 1256.5 ± 1.8 m/s, the speed of sound ([1]; m1 = 0.1659) was 1257.8 ± 1.8 m/s and the speed of sound ([1]; m1 = 0.2522) was 1259.1 ± 1.8 m/s. The speed of sound ([1]; m1 = 0.3257) was 1260.2 ± 1.8 m/s, the speed of sound ([1]; m1 = 0.4055) was 1261.5 ± 1.8 m/s and the mass density ([1]; m1 = 0.0805) was 775.71 ± 1.6 kg/m3. For the same compound, the mass density ([1]; m1 = 0.1659) was 777.64 ± 1.6 kg/m3, the mass density ([1]; m1 = 0.2522) was 779.56 ± 1.6 kg/m3 and the mass density ([1]; m1 = 0.3257) was 781.18 ± 1.6 kg/m3. It also gave a mass density ([1]; m1 = 0.4055) of 782.91 ± 1.6 kg/m3.
Compound `c1ccc2ccccc2c1` [naphthalene] + CCCCCCC has a speed of sound ([1]; m1 = 0.0934) of 1134.3 ± 1.8 m/s, a speed of sound ([1]; m1 = 0.1975) of 1137.2 ± 1.8 m/s and a speed of sound ([1]; m1 = 0.2708) of 1139.1 ± 1.8 m/s. For the same compound, the speed of sound ([1]; m1 = 0.3725) was 1141.8 ± 1.8 m/s, the speed of sound ([1]; m1 = 0.4561) was 1144 ± 1.8 m/s and the mass density ([1]; m1 = 0.0934) was 682.41 ± 1.6 kg/m3. The mass density ([1]; m1 = 0.1975) was 685.54 ± 1.6 kg/m3, the mass density ([1]; m1 = 0.2708) was 687.7 ± 1.6 kg/m3 and the mass density ([1]; m1 = 0.3725) was 690.68 ± 1.6 kg/m3. For the same compound, the mass density ([1]; m1 = 0.4561) was 693.03 ± 1.6 kg/m3.
With `c1ccc(-c2ccccc2-c2ccccc2)cc1` [o-terphenyl] + C1CCCCC1 the speed of sound ([1]; m1 = 0.0245) was 1256.1 ± 1.8 m/s, the speed of sound ([1]; m1 = 0.0451) was 1256.8 ± 1.8 m/s and the speed of sound ([1]; m1 = 0.0688) was 1257.5 ± 1.8 m/s. The speed of sound ([1]; m1 = 0.093) was 1258.4 ± 1.8 m/s, the speed of sound ([1]; m1 = 0.1144) was 1259 ± 1.8 m/s and the mass density ([1]; m1 = 0.0245) was 775.07 ± 1.6 kg/m3. The mass density ([1]; m1 = 0.0451) was 776.06 ± 1.6 kg/m3, the mass density ([1]; m1 = 0.0688) was 777.19 ± 1.6 kg/m3 and the mass density ([1]; m1 = 0.093) was 778.35 ± 1.6 kg/m3. It also gave a mass density ([1]; m1 = 0.1144) of 779.36 ± 1.6 kg/m3.
`c1ccc(-c2ccccc2-c2ccccc2)cc1` [o-terphenyl] + CCCCCCC showed a speed of sound ([1]; m1 = 0.0267) of 1132.8 ± 1.8 m/s, a speed of sound ([1]; m1 = 0.0392) of 1133.5 ± 1.8 m/s and a speed of sound ([1]; m1 = 0.0544) of 1134.1 ± 1.8 m/s. For the same compound, the speed of sound ([1]; m1 = 0.0652) was 1134.6 ± 1.8 m/s, the speed of sound ([1]; m1 = 0.0763) was 1135.2 ± 1.8 m/s and the mass density ([1]; m1 = 0.0267) was 681.11 ± 1.6 kg/m3. For the same compound, the mass density ([1]; m1 = 0.0392) was 681.85 ± 1.6 kg/m3, the mass density ([1]; m1 = 0.0544) was 682.75 ± 1.6 kg/m3 and the mass density ([1]; m1 = 0.0652) was 683.4 ± 1.6 kg/m3. It also gave a mass density ([1]; m1 = 0.0763) of 684.05 ± 1.6 kg/m3.
For `c1ccc2c(c1)ccc1ccccc12` [phenanthrene] + C1CCCCC1, the speed of sound ([1]; m1 = 0.0343) was 1256.4 ± 1.8 m/s, the speed of sound ([1]; m1 = 0.0591) was 1257.2 ± 1.8 m/s and the speed of sound ([1]; m1 = 0.0896) was 1258.2 ± 1.8 m/s. It also gave a speed of sound ([1]; m1 = 0.1162) of 1259 ± 1.8 m/s, a speed of sound ([1]; m1 = 0.1455) of 1259.8 ± 1.8 m/s and a mass density ([1]; m1 = 0.0343) of 775.27 ± 1.6 kg/m3. For the same compound, the mass density ([1]; m1 = 0.0591) was 776.28 ± 1.6 kg/m3, the mass density ([1]; m1 = 0.0896) was 777.54 ± 1.6 kg/m3 and the mass density ([1]; m1 = 0.1162) was 778.63 ± 1.6 kg/m3. It also gave a mass density ([1]; m1 = 0.1455) of 779.78 ± 1.6 kg/m3.
For `c1ccc2c(c1)ccc1ccccc12` [phenanthrene] + CCCCCCC, the speed of sound ([1]; m1 = 0.0349) was 1133.2 ± 1.8 m/s, the speed of sound ([1]; m1 = 0.0513) was 1134 ± 1.8 m/s and the speed of sound ([1]; m1 = 0.0739) was 1135 ± 1.8 m/s. For the same compound, the speed of sound ([1]; m1 = 0.0812) was 1135.3 ± 1.8 m/s, the speed of sound ([1]; m1 = 0.1012) was 1136.2 ± 1.8 m/s and the mass density ([1]; m1 = 0.0349) was 681.3 ± 1.6 kg/m3. For the same compound, the mass density ([1]; m1 = 0.0513) was 682.12 ± 1.6 kg/m3, the mass density ([1]; m1 = 0.0739) was 683.26 ± 1.6 kg/m3 and the mass density ([1]; m1 = 0.0812) was 683.59 ± 1.6 kg/m3. The mass density ([1]; m1 = 0.1012) was 684.63 ± 1.6 kg/m3.
